Measurements published in patent US12370143B2, “Compound or salt thereof and lipid particles” (FUJIFILM Corporation, priority 2018, dated 2025).

What was measured:
[1] = Particle size of nucleic acid lipid particles (Luc2-siRNA); assay type: physicochemical; settings: compound/DSPC/cholesterol/DMG-PEG2000 50/10/38.5/1.5
Protocol: By using the dispersion liquid of lipid particles as it was, the particle size of the lipid particles was measured using a zeta potential/particle size measurement system ELS-Z2 (Otsuka Electronics Co., Ltd.).
(§1) The compounds described in Table 2, L-α-distearoylphosphatidylcholine (trade name: COATSOME® MC-8080; NOF corporation), cholesterol (trade name: Choesterol HP; NIPPON FINE CHEMICAL CO., LTD.), and 1,2-dimyristoyl-rac-glycero-3-(methylpolyoxyethylene 2000) (hereinafter, called DMG-PEG2000) (trade name: SUNBRIGHT® GM-020; NOF corporation) were dissolved in ethanol at a molar ratio of 50/10/38.5/1.5 such that the total lipid concentration became 20 mmol/L, thereby obtaining an oil phase.
(§2) An aqueous nucleic acid solution obtained by dissolving 5 mg of Luc2-siRNA having the sequence described in Biomacromolecules (2013) 14, p. 3905 in 1 mL of sterile water was diluted with 10 mmol/L acetate buffer having a pH 4 such that the nucleic acid concentration became 19.7 μmol/L, thereby obtaining a water phase. Then, the water phase and the oil phase were mixed together by a micromixer (see JP5288254B) using a syringe pump such that the volume ratio of water phase:oil phase became 3:1 (final ratio of siRNA/lipid=339 (mol/mol)), and the mixed solution was diluted 2× with PBS, thereby obtaining a dispersion liquid of nucleic acid lipid particles. The dispersion liquid was dialyzed (Slide-A-Lyzer G2, MWCO: 10 kD, Thermo Fisher Scientific) using a phosphate buffered saline such that ethanol was removed, thereby obtaining nucleic acid lipid particles.
The particle size of the nucleic acid lipid particles was measured by the same method as that in <Preparation of lipid particles>.

[2] = Encapsulation rate of siRNA in nucleic acid lipid particles (Luc2-siRNA); assay type: physicochemical; settings: compound/DSPC/cholesterol/DMG-PEG2000 50/10/38.5/1.5
Protocol: as §1, §2
A 3 mol/L aqueous sodium acetate solution (30 μL) and 9 μL of glycogen were added to 60 μL of the lipid particles retaining nucleic acids, and then 1.5 mL of ethanol was added thereto such that only the nucleic acids were precipitated while the lipid was dissolved. Then, the supernatant was removed by centrifugation. After the precipitates were air-dried for 15 minutes or longer, water was added thereto such that the precipitates were redissolved, and the concentration thereof was measured using Nanodrop NF1000 (Thermo Fisher Scientific), thereby quantifying the total nucleic acid concentration.
The nucleic acid concentration was quantified using a Quant-iT RiboGreen RNA Assay Kit (Thermo Fisher Scientific) according to the protocol. First, a 20×TE buffer included in the above kit was diluted with water, thereby obtaining a 1×TE buffer. TE represents Tris/EDTA (ethylenediaminetetraacetic acid). In order to quantify only the nucleic acid in the outer water phase, the dispersion liquid of lipid particles retaining nucleic acids was diluted 10,000× with the 1×TE buffer.
The 10,000× diluted dispersion liquid of lipid particles (100 μL) was put in a 96-well plate, then 100 μL of a RiboGreen reagent (reagent included in the Quanti-iT Ribogreen RNA Assay Kit described above) diluted 2000× with the 1×TE buffer was added to a sample, and fluorescence (excitation wavelength: 485 nm, fluorescence wavelength: 535 nm) was measured using a plate reader Infinit EF200 (TECAN), thereby quantifying the nucleic acid concentration in the outer water phase.
By using the total nucleic acid concentration obtained through the above steps and the quantified nucleic acid concentration in the outer water phase, the nucleic acid encapsulation rate of the nucleic acid lipid particles was calculated according to the following Equation. Nucleic acid encapsulation rate (%)=(total nucleic acid concentration−nucleic acid concentration in outer water phase)/total nucleic acid concentration×100 The results are shown in Table 2.

| SMILES | Particle size (nm) [1] [nm] | Nucleic acid encapsulation rate [2] [%] |
| --- | --- | --- |
| CCCCC/C=C\C/C=C\CCCCCCCCN(CCCCCCCC/C=C\C/C=C\CCCCC)C(=O)OCCN(C)CCN1CCOCC1 [Example 5, 2-(Methyl(2-morpholinoethyl)amino)ethyl di((9Z,12Z)-octadeca-9,12-diene-1-yl)carbamate] | 73.8 | 78 |
| CCCCC/C=C\C/C=C\CCCCCCCCN(CCCCCCCC/C=C\C/C=C\CCCCC)C(=O)OCCN(CC)CCN1CCOCC1 [Example 6, 2-(Ethyl(2-morpholinoethyl)amino)ethyl di((9Z,12Z)-octadeca-9,12-dien-1-yl)carbamate] | 113.5 | 78 |
| CCCCCC/C=C\COC(=O)CCCCCCCN(CCCCCCCC(=O)OC/C=C\CCCCCC)C(=O)OCCN(C)CCN(C)C [Example 11, (Z)-non-2-en-1-yl 2,5-dimethyl-10-(8-(((Z)-non-2-en-1-yl)oxy)-8-oxooctyl)-9-oxo-8-oxa-2,5,10-triazaoctadecan-18-oate] | 217.2 | 84 |
| CCCCCC/C=C/COC(=O)CCCCCCCN(CCCCCCCC(=O)OC/C=C/CCCCCC)C(=O)OCCN(C)CCN(C)C [Example 12, (E)-non-2-en-1-yl 2,5-dimethyl-10-(8-(((E)-non-2-en-1-yl)oxy)-8-oxooctyl)-9-oxo-8-oxa-2,5,10-triazaoctadecan-18-oate] | 254.2 | 100 |
| CCCCCCCCCOC(=O)CCCCCCCN(CCCCCCCC(=O)OCCCCCCCCC)C(=O)OCCN(C)CCN(C)C [Example 13, Nonyl 2,5-dimethyl-10-(8-(nonyloxy)-8-oxooctyl)-9-oxo-8-oxa-2,5,10-triazaoctadecan-18-oate] | 140.3 | 88 |
| CCCCCC/C=C\COC(=O)OCCCCCCN(CCCCCCOC(=O)OC/C=C\CCCCCC)C(=O)OCCN(C)CCN(C)C [Example 14, 2-((2-(Dimethylamino)ethyl)(methyl)amino)ethyl bis(6-(((((Z)-non-2-en-1-yl)oxy)carbonyl)oxy)hexyl)carbamate] | 219.0 | 76 |
| CCCCCCCC/C=C\CCCCCCCCN(CCCCCCCCC)C(=O)OCCN(C)CCN(C)C [Example 15, 2-((2-(Dimethylamino)ethyl)(methyl)amino)ethyl(Z)-nonyl(octadec-9-en-1-yl)carbamate] | 122.8 | 83 |
| CCCCC/C=C\C/C=C\CCCCCCCCN(CCCCCCCCC)C(=O)OCCN(C)CCN(C)C [Example 16, 2-((2-(Dimethylamino)ethyl)(methyl)amino)ethyl nonyl((9Z,12Z)-octadeca-9,12-dien-1-yl)carbamate] | 113.4 | 90 |
| CCCCC/C=C\C/C=C\CCCCCCCCC(CCCCCCCC/C=C\C/C=C\CCCCC)OC(=O)OCCN(CC)CCN1CCOCC1 [Example 22, 2-(Ethyl(2-morpholinoethyl)amino)ethyl((6Z,9Z,28Z,31Z)-heptatriaconta-6,9,28,31-tetraen-19-yl)carbonate] | 69.3 | 69 |
| CCCCCCCCC1CC1CCCCCCCC(=O)OCCCCCCC(CCCCCCOC(=O)CCCCCCCC1CC1CCCCCCCC)OC(=O)OCCN(CC)CCN(CC)CC (stereo not shown) [Example 57] | 77.9 | 79 |
| CCCCCCC(CCCC)COC(=O)CCCC(CCCCCC)OC(=O)OCCN(CC)CCN(CC)CC (stereo not shown) [Example 80, 2-butyloctyl 3,6-diethyl-12-hexyl-10-oxo-9,11-dioxa-3,6-diazahexadecan-16-oate] | 98.7 | 61 |
| CCCCCCC(CCCC)COC(=O)CCCC(CCCCCC)OC(=O)OCCN(CCN(CC)CC)C(C)C (stereo not shown) [Example 81, 2-Butyloctyl 3-ethyl-12-hexyl-6-isopropyl-10-oxo-9,11-dioxa-3,6-diazahexadecan-16-oate] | 102.6 | 49 |

Next, values leading:

| Particle size (nm) [1] [nm] | Nucleic acid encapsulation rate [2] [%] | SMILES |
| --- | --- | --- |
| 80.5 | 78 | CCCCC/C=C\C/C=C\CCCCCCCCN(CCCCCCCC/C=C\C/C=C\CCCCC)C(=O)OCCCN(C)CCN(C)C [Example 2, 3-((2-(Dimethylamino)ethyl)(methyl)amino)propyl di((9Z,12Z)-octadeca-9,12-dien-1-yl)carbamate] |
| 81.4 | 83 | CCCCC/C=C\C/C=C\CCCCCCCCN(CCCCCCCC/C=C\C/C=C\CCCCC)C(=O)OCCN(C)CCCN(C)C [Example 8, 2-((3-(Dimethylamino)propyl)(methyl)amino)ethyl di((9Z,12Z)-octadeca-9,12-dien-1-yl)carbamate] |
| 78.0 | 78 | CCCCC/C=C\C/C=C\CCCCCCCCC(CCCCCCCC/C=C\C/C=C\CCCCC)OC(=O)OCCN(C)CCN1CCOCC1 [Example 21, 2-(Methyl(2-morpholinoethyl)amino)ethyl((6Z,9Z,28Z,31Z)-heptatriaconta-6,9,28,31-tetraen-19-yl)carbonate] |
| 76.4 | 75 | CCCCC/C=C\C/C=C\CCCCCCCCC(CCCCCCCC/C=C\C/C=C\CCCCC)OC(=O)OCCN(CCO)CCN(C)C [Example 28] |
| 71.6 | 78 | CCCCC/C=C\C/C=C\CCCCCCCCC(CCCCCCCC/C=C\C/C=C\CCCCC)OC(=O)OCCN(CCN(C)C)C1CCCCC1 [Example 32, 2-(Cyclohexyl(2-(dimethylamino)ethyl)amino)ethyl((6Z,9Z,28Z,31Z)-heptatriaconta-6,9,28,31-tetraen-19-yl)carbonate] |
| 80.1 | 87 | CCCCC/C=C\C/C=C\CCCCCCCC(=O)OCC(COC(=O)CCCCCCC/C=C\C/C=C\CCCCC)OC(=O)OCCN(CC)CCN(C)C [Example 35, 2-(((2-((2-(Dimethylamino)ethyl)(ethyl)amino)ethoxy)carbonyl)oxy)propane-1,3-diyl(9Z,9′Z,12Z,12′Z)-bis(octadeca-9,12-dienoate)] |
| 78.3 | 88 | CCCCC/C=C\C/C=C\CCCCCCCCC(CCCCCCCC/C=C\C/C=C\CCCCC)OC(=O)OCCN(CCCC)CCN(CC)CC [Example 39, 2-(Butyl(2-(diethylamino)ethyl)amino)ethyl((6Z,9Z,28Z,31Z)-heptatriaconta-6,9,28,31-tetraen-19-yl)carbonate] |
| 69.4 | 59 | CCCCC/C=C\C/C=C\CCCCCCCCC(CCCCCCCC/C=C\C/C=C\CCCCC)OC(=O)OCCN(CCC)CCN(CC)CC [Example 44, 2-((2-(Diethylamino)ethyl)(propyl)amino)ethyl((6Z,9Z,28Z,31Z)-heptatriaconta-6,9,28,31-tetraen-19-yl)carbonate] |
| 74.3 | 80 | CCCCC/C=C\C/C=C\CCCCCCCCC(CCCCCCCC/C=C\C/C=C\CCCCC)OC(=O)OCCN(CC)CCN(CCC)CCC [Example 49, 2-((2-(Dipropylamino)ethyl)(ethyl)amino)ethyl((6Z,9Z,28Z,31Z)-heptatriaconta-6,9,28,31-tetraen-19-yl)carbonate] |
| 65.8 | 79 | CCCCC/C=C\C/C=C\CCCCCCCCC(CCCCCCCC/C=C\C/C=C\CCCCC)OC(=O)OCCN(CCN(C)CCC)C(C)C [Example 63, (6Z, 9Z, 28Z, 31Z)-heptatriaconta-6,9,28,31-tetraen-19-yl(2-(isopropyl(2-(methyl(propyl)amino)ethyl)amino)ethyl)carbonate] |
| 65.5 | 81 | CCCCC/C=C\C/C=C\CCCCCCCCC(CCCCCCCC/C=C\C/C=C\CCCCC)OC(=O)OCCN(CCN(C)CC)C(C)(C)C [Example 79, 2-(tert-Butyl(2-(ethyl(methyl)amino)ethyl)amino)ethyl((6Z,9Z,28Z,31Z)-heptatriaconta-6,9,28,31-tetraen-19-yl)carbonate] |
